Values after ≈ are worked out from the molar mass of the structure shown. One block for each compound: values may come before it.
Columns and labels:
[1] = tested on: cultured skin model containing melanin cells (MEL-300, Asian Doner, manufactured by Kurabo Industries, Ltd.); experiment: Melanin production inhibition test using three-dimensional cultured skin model; assay type: cell-based; details: 336 h, cultured for 14 days, read-out: Melanin production inhibition rate (% with respect to control); for inhibition at 100 µM: Addition concentration 100 µM; for inhibition at 50 µM: Addition concentration 50 µM
Description: 4-(3-alkoxybutyl)phenol obtained in the above-mentioned Production Example 1 was subjected to the below-mentioned melanin production inhibition test. Note here that as a comparison target, 4-(3-hydroxybutyl)phenol in which an alkyl group had been removed from 4-(3-alkoxybutyl)phenol -and 4-(3-acetoxybutyl)phenol and 4-(3-propanoyloxybutyl)phenol as an ester compound having the same number of carbon atoms, were used.
To a skin model cup of a cultured skin model containing melanin cells (MEL-300, Asian Doner, manufactured by Kurabo Industries, Ltd.), 0.2 mL of a solution of a test substance was placed, and the skin model was cultured for 14 days by using an LLMM medium attached to the product. During the culture period, the medium was replaced by a new medium every three days. After culture for 14 days, the skin model was washed, the survival rate was measured by fluorescence measurement (Excitation: 560 nm, Emission: 590 nm) using an AlamarBlue reagent (manufactured by Molecular Probe), and the amount of melanin synthesized in each skin model was measured. The amount of melanin synthesized was determined by the colorimetric determination (405 nm) of a solution obtained by immersing each skin model in PBS so as to separate a cell layer, then washing it with PBS and hydrous ethanol, adding 0.2 mL of a 2N NaOH aqueous solution, and extracting melanin at 100°C for three hours.

Solubility test = assay type: physicochemical; details: thermodynamic from solid, 0.1 g compound + 1 mL solvent, heated at 40°C for 10 min., returned to room temperature, visual observation
Experimental: By using 4-(3-ethoxybutyl)phenol obtained in the above-mentioned Production Example 1, the following solubility test was carried out. Note here that as a comparison target, 4-(3-hydroxybuty)phenol was used.
To 0.1 g of each compound, 1 mL of each solvent described in the following table 1 was added. The mixture was heated at 40°C for 10 min., and then the temperature was returned to room temperature. The solubility in the solvent at this time was evaluated by visual observation. The evaluation was carried out in which a case where it was dissolved was evaluated as "a" and a case where insolubles were left was evaluated as "b."

B16 melanoma cells = experiment: in vitro melanin production inhibition test; assay type: cell-based; details: Mus musculus, concentration inhibiting production of melanin by 50%, cultured for 72 hours, theophylline 2 mmol/L, melanin per unit amount of protein
Experimental: The 4-(3-alkoxybutyl)phenol compound obtained in the above-mentioned Production Example 1 was subjected to the following melanin production inhibition test. Note here that as a comparison target, arbutin, ascorbic acid, kojic acid, and linoleic acid, which are known to have a melanin production-inhibitory action, were used. B16 melanoma cells were seeded in a minimum essential medium (MEM) supplemented with 10 vol% fetal bovine serum in 12-well plates at 1 × 10^4 cells/well, and pre-cultured for 24 hours by a usual method. After pre-culture, the medium was replaced to a test medium to which each evaluation sample had been added at various concentrations, and the medium was cultured for 72 hours. As the test medium, the above-mentioned pre-culture medium to which theophylline had been added at 2 mmol/L was used. After culture, cells were collected and dissolved in 1 mol/L of an aqueous solution of sodium hydroxide containing 10 vol% dimethyl sulfoxide, and an OD475 value of the solution was measured and the value was defined as an index of the amount of melanin. Furthermore, at the same time, by using Coomasie Plus Protein Assay Kit (manufactured by PIERCE), the total amount of protein in the solution was measured, and the amount of melanin per unit amount of protein was calculated. Based on the amount of melanin per unit amount of protein, the melanin production inhibition rate was calculated per each addition concentration from the following formula. Melanin production inhibition rate (%) = (A-B)/A [formula] (wherein A denotes the amount of melanin per unit amount of protein when no sample was added, and B denotes the amount of melanin per unit amount of protein when a sample was added). Next, a graph in which the concentration of the added sample is plotted on the axis of abscissas, and a melanin production inhibition rate is plotted in the axis of ordinates was formed, and concentration at which each evaluation sample inhibits the production of melanin by 50% (IC50) was determined from this graph.

[2] = oil or lipid, Glyceryl tri(2-ethylhexanoate)
[3] = oil or lipid, Isocetyl myristate
[4] = oil or lipid, Methylphenyl polysiloxane (Silicon FZ209)
[5] = oil or lipid, Octyldodecyl myristate
[6] = organic solvent or mixture, Dipropylene glycol
[7] = organic solvent or mixture, Ethanol

SMILES: CC(=O)OC(C)CCc1ccc(O)cc1 (stereo not drawn) [4-(3-Acetoxybutyl)phenol, 4-(3-acetoxybutyl)phenol, reference compound]
inhibition at 100 µM [1]: 26.7%

solubility at 10 min (Solubility test; [2]): > 100 mg/mL | solubility at 10 min (Solubility test; [3]): > 100 mg/mL | solubility at 10 min (Solubility test; [4]): > 100 mg/mL | solubility at 10 min (Solubility test; [5]): > 100 mg/mL | solubility at 10 min (Solubility test; [6]): > 100 mg/mL | solubility at 10 min (Solubility test; [7]): > 100 mg/mL | IC50 (B16 melanoma cells): 2 µg/mL (≈ 10.3 µM)
SMILES: CCOC(C)CCc1ccc(O)cc1 (stereo not drawn) [4-(3-Ethoxybutyl)phenol, 4-(3-ethoxybutyl)phenol]
inhibition at 100 µM [1]: 56%

solubility at 10 min (Solubility test; [2]): < 100 mg/mL | solubility at 10 min (Solubility test; [3]): < 100 mg/mL | solubility at 10 min (Solubility test; [4]): < 100 mg/mL | solubility at 10 min (Solubility test; [5]): > 100 mg/mL | solubility at 10 min (Solubility test; [6]): > 100 mg/mL | solubility at 10 min (Solubility test; [7]): > 100 mg/mL
SMILES: CC(O)CCc1ccc(O)cc1 (stereo not drawn) [4-(3-Hydroxybutyl)phenol, 4-(3-hydroxybutyl)phenol, reference compound]
inhibition at 100 µM [1]: 18.6%

IC50 (B16 melanoma cells): 2 µg/mL (≈ 9.6 µM)
SMILES: CC(C)OC(C)CCc1ccc(O)cc1 (stereo not drawn) [4-(3-Isopropoxybutyl)phenol, 4-(3-isopropoxybutyl)phenol]
inhibition at 50 µM [1]: 56.9%

IC50 (B16 melanoma cells): 2 µg/mL (≈ 11.1 µM)
SMILES: COC(C)CCc1ccc(O)cc1 (stereo not drawn) [4-(3-Methoxybutyl)phenol, 4-(3-methoxybutyl)phenol]
inhibition at 100 µM [1]: 55.6%

SMILES: CCC(=O)OC(C)CCc1ccc(O)cc1 (stereo not drawn) [4-(3-Propanoyloxybutyl)phenol, 4-(3-propanoyloxybutyl)phenol, reference compound]
inhibition at 50 µM [1]: 18.4%

IC50 (B16 melanoma cells): 2.5 µg/mL (≈ 12 µM)
SMILES: CCCOC(C)CCc1ccc(O)cc1 (stereo not drawn) [4-(3-Propoxybutyl)phenol, 4-(3-propoxybutyl)phenol]
inhibition at 50 µM [1]: 69.5%

IC50 (B16 melanoma cells): 30 µg/mL (≈ 110 µM)
SMILES: OC[C@H]1O[C@@H](Oc2ccc(O)cc2)[C@H](O)[C@@H](O)[C@@H]1O [Arbutin, arbutin, reference compound]

IC50 (B16 melanoma cells): 60 µg/mL (≈ 341 µM)
SMILES: O=C1O[C@H]([C@@H](O)CO)C(O)=C1O [Ascorbic acid, ascorbic acid, reference compound]

IC50 (B16 melanoma cells): 180 µg/mL (≈ 1270 µM)
SMILES: O=c1cc(CO)occ1O [Kojic acid, kojic acid, reference compound]

IC50 (B16 melanoma cells): 4 µg/mL (≈ 14.3 µM)
SMILES: CCCCC/C=C\C/C=C\CCCCCCCC(=O)O [Linoleic acid, linoleic acid, reference compound]

From EP2556819A1, “EXTERNAL SKIN PREPARATION” (Kao Corporation, priority 2010, dated 2011)
